From US7803930B2, “Antisense modulation of apolipoprotein B-expression” (Isis Pharmaceuticals, Inc., priority 2002, dated 2010)
In the oligonucleotide strings, read from the 5' end, every base follows the letter of its sugar. An asterisk marks phosphorothioate; unmarked linkages are phosphodiester. Other units and linkages are bracketed, terminal groups are in braces. A string of capitals states the bases alone. e = 2'-O-(2-methoxyethyl) (MOE); [5mC] = 5-methylcytosine; d = 2'-deoxy (DNA)

Test system: human apolipoprotein B mRNA
Assay: Inhibition of human apolipoprotein B mRNA levels in HepG2 cells, quantitative real-time PCR
Type: cell-based
Settings: for % INHIB (inhibition of human apolipoprotein B mRNA levels): HepG2 cells treated with 150 nM of compound, quantitative real-time PCR
How it was run: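 Apolipoprotein B transcript was quantified by one-step TaqMan RT-PCR, normalized to GAPDH or RiboGreen RNA, and expressed as percent inhibition against an untreated-sample standard curve. HepG2 cells were harvested 16-24 h after oligonucleotide exposure, which was delivered with 3.75 μg/mL Lipofectin over 4-7 h at 80% confluency.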

[1] = HepG2 cells, 50 nm oligonucleotide, variable deoxy gap position
[2] = HepG2 cells, 150 nm oligonucleotide, variable deoxy gap position
[3] = Table 17 variable gap, HepG2 cells, 50 nM, averages from three experiments
[4] = Table 17 variable gap, HepG2 cells, 150 nM, averages from three experiments
[5] = HepG2 cells, human apolipoprotein B mRNA, oligonucleotides targeting genomic sequence SEQ ID NO 334, averages from two experiments
[6] = HepG2 cells, 10 nM, 24 hour (Table 41)
[7] = HepG2 cells, 50 nM, 24 hour (Table 41)
[8] = HepG2 cells, 150 nM, 24 hour (Table 41)

308632 (GCCTCAGTCTGCTTCGCACC; 0-10-10 MOE gapmer, phosphorothioate, chemistry not fully specified) [compound 308632]
% INHIB 50 nm [1]: 41% | % INHIB 150 nm [2]: 97%

308657 (antisense GCCTCAGTCTGCTTCGCGCC; 9-10-1 2'-MOE gapmer, phosphorothioate, chemistry not fully specified) [compound 308657]
% INHIB 50 nm [3]: 61% | % INHIB 150 nm [4]: 78%

301104 (antisense e[5mC]*e[5mC]*eA*eG*eA*dG*dA*dT*dG*dA*dG*d[5mC]*dA*dA*d[5mC]*eT*eT*eA*eG*eG) [compound 301104]
% INHIB [5]: 38%

301188 (antisense eA*eA*e[5mC]*eT*eT*d[5mC]*dT*dA*dA*dA*dG*d[5mC]*d[5mC]*dA*dA*e[5mC]*eA*eT*eT*e[5mC]) [compound 301188]
% INHIB [5]: 27%

308647 (antisense GCCTCAGTCTGCTTCGCACC; 4-10-6 2'-MOE gapmer, phosphorothioate, chemistry not fully specified) [compound 308647]
% INHIB 50 nm [1]: 53% | % INHIB 150 nm [2]: 86%

308645 (antisense GCCTCAGTCTGCTTCGCGCC; 4-10-6 2'-MOE gapmer, phosphorothioate, chemistry not fully specified) [compound 308645]
% INHIB 50 nm [3]: 57% | % INHIB 150 nm [4]: 98%

301191 (antisense eT*eT*e[5mC]*eT*e[5mC]*dT*dT*d[5mC]*dA*dT*d[5mC]*dT*dG*dA*dA*eA*eA*eT*eA*e[5mC]) [compound 301191]
% INHIB [5]: 21%

281599 (eT*eT*e[5mC]*e[5mC]*eA*dA*dT*dG*dA*d[5mC]*d[5mC]*d[5mC]*dG*d[5mC]*dA*eG*eA*eA*eT*e[5mC]; antisense) [compound 281599]
% INHIB (inhibition of human apolipoprotein B mRNA levels) (averages from two experiments): 74%

301036 (eT*eT*eT*eG*eG*dT*dG*d[5mC]*dA*dG*dG*dT*d[5mC]*d[5mC]*dA*eG*eT*eT*e[5mC]*eA; antisense) [compound 301036]
% INHIB (inhibition of human apolipoprotein B mRNA levels) (averages from two experiments): 88% | % inhibition 37 nM (Table 19 dose response, HepG2 cells, 37 nM, normalized to untreated control): 67% | % inhibition 75 nM (Table 19 dose response, HepG2 cells, 75 nM, normalized to untreated control): 83% | % inhibition 150 nM (Table 19 dose response, HepG2 cells, 150 nM, normalized to untreated control): 92% | % inhibition 300 nM (Table 19 dose response, HepG2 cells, 300 nM, normalized to untreated control): 95%

301044 (eA*eA*eA*eA*eT*dA*dA*d[5mC]*dT*d[5mC]*dA*dG*dA*dT*d[5mC]*e[5mC]*eT*eG*eA*eT; antisense) [compound 301044]
% INHIB (inhibition of human apolipoprotein B mRNA levels) (averages from two experiments): 76%

301114 (antisense eT*eG*e[5mC]*eA*e[5mC]*dA*dG*dA*dG*dG*dT*dG*d[5mC]*dA*dA*eG*eA*eT*eG*eT) [compound 301114]
% INHIB [5]: 16%

301153 (eA*eG*eT*e[5mC]*eA*dG*dA*dA*dA*dA*d[5mC]*dA*dA*d[5mC]*d[5mC]*eT*eA*eT*eT*e[5mC]; antisense) [compound 301153]
% INHIB [5]: 11%

301047 (eT*e[5mC]*e[5mC]*e[5mC]*e[5mC]*d[5mC]*dA*dA*dG*dT*dT*dT*dA*dG*d[5mC]*eA*eA*eA*eA*eT; antisense) [compound 301047]
% INHIB (inhibition of human apolipoprotein B mRNA levels) (averages from two experiments): 56%

281620 (antisense e[5mC]*e[5mC]*eT*eG*eA*dT*dA*dT*dT*d[5mC]*dA*dG*dA*dA*d[5mC]*eG*e[5mC]*eA*eG*e[5mC]) [compound 281620]
% INHIB (inhibition of human apolipoprotein B mRNA levels) (averages from two experiments): 89%

301054 (eT*e[5mC]*e[5mC]*eT*e[5mC]*d[5mC]*dA*dT*dA*d[5mC]*d[5mC]*dT*dT*dG*d[5mC]*eA*eG*eT*eT*eG; antisense) [compound 301054]
% INHIB [5]: 0%

308624 (eT*e[5mC]*eG*e[5mC]*eG*d[5mC]*d[5mC]*dT*dT*d[5mC]*dT*dG*d[5mC]*dT*dT*eG*eA*eG*eT*eT; antisense) [compound 308624]
% INHIB 50 nm (Table 13 gene walk, HepG2 cells, 50 nM, averages from two experiments): 69% | % INHIB 150 nm (Table 13 gene walk, HepG2 cells, 150 nM, averages from two experiments): 89%

301067 (eT*e[5mC]*eT*eG*eA*dT*d[5mC]*dA*d[5mC]*d[5mC]*dA*dT*dA*d[5mC]*dA*eT*eT*eA*e[5mC]*eA; antisense) [compound 301067]
% INHIB [5]: 45%

281627 (antisense e[5mC]*e[5mC]*eA*eG*eA*dG*dA*dG*d[5mC]*dG*dA*dG*dT*dT*dT*e[5mC]*e[5mC]*e[5mC]*eA*eT) [compound 281627]
% INHIB (inhibition of human apolipoprotein B mRNA levels) (averages from two experiments): 82%

331022 (antisense GCCTCAGTCTGCTTCGCAC; sugars from the 5' end e5 d10 e4, all phosphorothioate, methylation of C not given here) [compound 331022]
% Change in apolipoprotein B mRNA expression [6]: −33% | % Change in apolipoprotein B mRNA expression [7]: −49% | % Change in apolipoprotein B mRNA expression [8]: −87%

308598 (antisense e[5mC]*e[5mC]*eT*e[5mC]*eA*dG*dT*d[5mC]*dT*dG*d[5mC]*dT*dT*d[5mC]*dG*e[5mC]*eA*e[5mC]*e[5mC]*eT) [compound 308598]
% INHIB 50 nm (Table 11 gene walk, HepG2 cells, 50 nM, averages from two experiments): 59% | % INHIB 150 nm (Table 11 gene walk, HepG2 cells, 150 nM, averages from two experiments): 85%

332780 (antisense CCTCAGTCTGCTTCGCAC; sugars from the 5' end e4 d10 e4, all phosphorothioate, methylation of C not given here) [compound 332780]
% Change in apolipoprotein B mRNA expression [6]: −3% | % Change in apolipoprotein B mRNA expression [7]: −43% | % Change in apolipoprotein B mRNA expression [8]: −74%

308659 (antisense GCCTCAGTCTGCTTCGCACC; 9-10-1 2'-MOE gapmer, phosphorothioate, chemistry not fully specified) [compound 308659]
% INHIB 50 nm [1]: 70% | % INHIB 150 nm [2]: 93%

332770 (antisense GCCTCAGTCTTCTTCGCACC; sugars from the 5' end e5 d10 e5, all phosphorothioate, methylation of C not given here) [compound 332770]
% Change in apolipoprotein B mRNA expression (HepG2 cells, 50 nM, 24 hour (Table 40)): +7% | % Change in apolipoprotein B mRNA expression (HepG2 cells, 150 nM, 24 hour (Table 40)): −22%

301116 (antisense eG*eA*eT*eG*eG*dA*dT*dG*dG*dT*dG*dA*dG*dA*dA*eA*eT*eT*eA*e[5mC]) [compound 301116]
% INHIB [5]: 33%

301200 (antisense eT*eT*eG*eA*eA*dT*dG*dA*d[5mC]*dA*d[5mC]*dT*dA*dG*dA*eT*eT*eT*eT*e[5mC]) [compound 301200]
% INHIB [5]: 37%

301219 (antisense eG*e[5mC]*e[5mC]*eA*eG*dA*dA*d[5mC]*dA*dT*dT*dT*dT*dA*dT*e[5mC]*eA*eA*eT*eG) [compound 301219]
% INHIB (Table 15, HepG2 cells, 150 nM, averages from two experiments): 35%

301099 (antisense eA*e[5mC]*e[5mC]*eA*e[5mC]*d[5mC]*dT*dG*dA*d[5mC]*dA*dT*d[5mC]*dA*d[5mC]*eA*eG*eG*eT*eT) [compound 301099]
% INHIB [5]: 24%

301102 (antisense eT*e[5mC]*e[5mC]*eA*eG*dA*d[5mC]*dT*dT*dG*dT*d[5mC]*dT*dG*dA*eG*eT*e[5mC]*eT*eA) [compound 301102]
% INHIB [5]: 47%
